# Inconclusive results and toxic doses are left out.
# Tested on: P388 leukemia ip, CD2F1 mice, survival T/C
# Assay: NCI In Vivo Anticancer Drug Screen. Data for tumor model P388 Leukemia (intraperitoneal) in CD2F1 (CDF1) mice
# Conditions: endpoint: median survival time, higher = longer survival
# Method in brief: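 Mice carrying the transplanted tumor received test compound or vehicle. Survival was recorded in each group, and the value is the treated-group measurement divided by that of the vehicle-treated control group.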
# [1] = dose: 50.0 mg/kg/injection, schedule: Q01DX009 (ip), vehicle: saline with Tween-80
# [2] = dose: 100.0 mg/kg/injection, schedule: Q01DX009 (ip), vehicle: saline with Tween-80
# [3] = dose: 200.0 mg/kg/injection, schedule: Q01DX009 (ip), vehicle: saline with Tween-80
# [4] = dose: 50.0 mg/kg/injection, schedule: Q01DX005 (ip), vehicle: saline with Tween-80
# [5] = dose: 100.0 mg/kg/injection, schedule: Q01DX005 (ip), vehicle: saline with Tween-80
# [6] = dose: 200.0 mg/kg/injection, schedule: Q01DX005 (ip), vehicle: saline with Tween-80
smiles,measurement,setting,value
CC(C)(C(=O)O)c1ccc(C(=O)O)c(Br)c1,T/C,[1],91 % of control
same,T/C,[2],93 % of control
same,T/C,[3],101 % of control
NC(=O)N/N=C1\CC2C=CC1/C=C\C=C\2 (stereo not given),T/C,"dose: 100.0 mg/kg/injection, schedule: Q01DX001 (ip), vehicle: saline with Tween-80",100 % of control
same,T/C,"dose: 200.0 mg/kg/injection, schedule: Q01DX001 (ip), vehicle: saline with Tween-80",106 % of control
same,T/C,"dose: 400.0 mg/kg/injection, schedule: Q01DX001 (ip), vehicle: saline with Tween-80",106 % of control
O=[N+]([O-])c1cnc(Oc2ccccc2[N+](=O)[O-])nc1,T/C,"dose: 6.25 mg/kg/injection, schedule: Q01DX009 (ip), vehicle: Klucel (hydroxypropylcellulose) (HPC)",107 % of control
same,T/C,"dose: 12.5 mg/kg/injection, schedule: Q01DX009 (ip), vehicle: Klucel (hydroxypropylcellulose) (HPC)",98 % of control
same,T/C,"dose: 25.0 mg/kg/injection, schedule: Q01DX009 (ip), vehicle: Klucel (hydroxypropylcellulose) (HPC)",98 % of control
same,T/C,"dose: 100.0 mg/kg/injection, schedule: Q01DX009 (ip), vehicle: Klucel (hydroxypropylcellulose) (HPC)",86 % of control
CCN(CC)C(=S)Sc1nsc(SC(=S)N(CC)CC)c1C#N,T/C,[1],94 % of control
same,T/C,[2],94 % of control
same,T/C,[3],94 % of control
C=CCN(CC=C)c1nc(N)nc(N)n1,T/C,"dose: 50.0 mg/kg/injection, schedule: Q01DX009 (ip), vehicle: saline",96 % of control
same,T/C,"dose: 100.0 mg/kg/injection, schedule: Q01DX009 (ip), vehicle: saline",90 % of control
same,T/C,"dose: 200.0 mg/kg/injection, schedule: Q01DX009 (ip), vehicle: saline",121 % of control
COc1ccc(I)c(C=NC2CCCCC2)c1C,T/C,"dose: 50.0 mg/kg/injection, schedule: Q01DX005 (ip), vehicle: distilled water + Tween-80 + alcohol",98 % of control
same,T/C,"dose: 100.0 mg/kg/injection, schedule: Q01DX005 (ip), vehicle: distilled water + Tween-80 + alcohol",97 % of control
same,T/C,"dose: 200.0 mg/kg/injection, schedule: Q01DX005 (ip), vehicle: distilled water + Tween-80 + alcohol",98 % of control
O=C(NC(CSSCC(NC(=O)c1ccccc1)C(=O)O)C(=O)O)c1ccccc1 (stereo not given),T/C,[1],109 % of control
same,T/C,[2],90 % of control
same,T/C,[3],101 % of control
same,T/C,"dose: 400.0 mg/kg/injection, schedule: Q01DX009 (ip), vehicle: saline with Tween-80",93 % of control
CC(C)C(NC(=O)OC(C)(C)C)C(=O)O (stereo not given),T/C,"dose: 50.0 mg/kg/injection, schedule: Q01DX005 (ip), vehicle: Klucel (hydroxypropylcellulose) (HPC)",102 % of control
same,T/C,"dose: 100.0 mg/kg/injection, schedule: Q01DX005 (ip), vehicle: Klucel (hydroxypropylcellulose) (HPC)",104 % of control
same,T/C,"dose: 200.0 mg/kg/injection, schedule: Q01DX005 (ip), vehicle: Klucel (hydroxypropylcellulose) (HPC)",93 % of control
O=C(O)CC(=O)O.[NH-]C1CCCC1[NH-].[Pt+2],T/C,"dose: 6.25 mg/kg/injection, schedule: Q04DX002 (ip), vehicle: saline",114 % of control
same,T/C,"dose: 50.0 mg/kg/injection, schedule: Q04DX002 (ip), vehicle: saline with Tween-80",169 % of control
same,T/C,"dose: 100.0 mg/kg/injection, schedule: Q04DX002 (ip), vehicle: saline with Tween-80",185 % of control
same,T/C,"dose: 200.0 mg/kg/injection, schedule: Q04DX002 (ip), vehicle: saline with Tween-80",197 % of control
COc1ccc(C(=O)C(C)Sc2ccccc2)cc1OC (stereo not given),T/C,"dose: 10.0 mg/kg/injection, schedule: Q01DX005 (ip), vehicle: Klucel (hydroxypropylcellulose) (HPC)",108 % of control
same,T/C,"dose: 20.0 mg/kg/injection, schedule: Q01DX005 (ip), vehicle: Klucel (hydroxypropylcellulose) (HPC)",105 % of control
same,T/C,"dose: 40.0 mg/kg/injection, schedule: Q01DX005 (ip), vehicle: Klucel (hydroxypropylcellulose) (HPC)",101 % of control
COc1ccc2c(N=[N+]=[N-])ccnc2c1,T/C,"dose: 60.0 mg/kg/injection, schedule: Q01DX005 (ip), vehicle: saline with Tween-80",89 % of control
same,T/C,"dose: 120.0 mg/kg/injection, schedule: Q01DX005 (ip), vehicle: saline with Tween-80",89 % of control
COc1ccc(CNC(=O)C(CO)N2C(=O)c3ccccc3C2=O)cc1 (stereo not given),T/C,[4],96 % of control
same,T/C,[5],100 % of control
same,T/C,[6],90 % of control
CCC1(O)CC2CCc3[nH]c4ccccc4c3CCN(C2)C1 (stereo not given),T/C,"dose: 5.25 mg/kg/injection, schedule: Q01DX005 (ip), vehicle: Klucel (hydroxypropylcellulose) (HPC)",100 % of control
same,T/C,"dose: 10.5 mg/kg/injection, schedule: Q01DX005 (ip), vehicle: Klucel (hydroxypropylcellulose) (HPC)",100 % of control
same,T/C,"dose: 21.0 mg/kg/injection, schedule: Q01DX005 (ip), vehicle: Klucel (hydroxypropylcellulose) (HPC)",98 % of control
same,T/C,"dose: 42.0 mg/kg/injection, schedule: Q01DX005 (ip), vehicle: Klucel (hydroxypropylcellulose) (HPC)",95 % of control
O=C1CN(CCO)CC(=O)N2Cc3ccccc3CN12,T/C,[4],101 % of control
same,T/C,[5],111 % of control
same,T/C,[6],103 % of control
